Reference: patent publication US12428360B2, “Abating unwanted emulsion polymerization during extractive distillation of conjugated diene monomers” (ECOLAB USA INC., priority 2022, dated 2025)

Experiment: Isoprene polymerization test at 95° C. in heptane (heptane phase, turbidity method)
Method: The commercial isoprene was passed through an alumina column to remove stabilizer 4-tert-butylcatechol. A 100 mL jar was charged with 0.2 g active polymerization inhibitor, 40 mL heptane, 40 mL DMF, and a stir bar. The above mixture was stirred at room temperature for 30 minutes and settled for 10 minutes.
Heptane phase: A 100 mL jar was charged with 5.0 mL top layer of previous settled two layers' mixture, 1 mL AIBN (0.0004 g/mL) solution, isoprene 50 g. Hexane was added to make a total weight of 100 g solution. About 13 ml of the above mixture was added to 12 pressure tubes with a stir bar and heated to 95° C. After 30 minutes, and every 30 minutes thereafter, two tubes were retrieved from the block and the polymerization reaction was quenched by cooling in an ice bath. The cooled polymer solutions were immediately diluted with toluene. The soluble polymer in the liquid was determined by turbidity method. Results can be seen in FIG. 2. The data used to generate the trend lines in FIG. 2 can be seen in Table 2.

## CCC(C)Nc1ccc(NC(C)CC)cc1 (stereo not shown) [PDA, di-sec-butyl-4,4′-phenylenediamine]
Time 0, AIBN initiator
  polymerization growth in Heptane phase (polyisoprene): 0 w/w %
Time 30 (minutes per method), AIBN initiator
  polymerization growth in Heptane phase (polyisoprene): 0.10% w/w %
Time 60 (minutes per method), AIBN initiator
  polymerization growth in Heptane phase (polyisoprene): 0.24% w/w %
Time 90 (minutes per method), AIBN initiator
  polymerization growth in Heptane phase (polyisoprene): 0.45% w/w %
Time 120 (minutes per method), AIBN initiator
  polymerization growth in Heptane phase (polyisoprene): 0.83% w/w %
Time 180 (minutes per method), AIBN initiator
  polymerization growth in Heptane phase (polyisoprene): 1.05% w/w %
Time 240 (minutes per method), AIBN initiator
  polymerization growth in Heptane phase (polyisoprene): 1.20% w/w %
